Source: ChEMBL document CHEMBL1134915, “Acyl dipeptides as reversible caspase inhibitors. Part 2: further optimization” (Bioorg Med Chem Lett, 2002)

How the values were obtained:
Caspase-6 [1] = biological target: T1, Caspase-6 (Homo sapiens, UniProt P55212); test: Inhibition of Caspase-6
T1 sequence (P55212 whole entry): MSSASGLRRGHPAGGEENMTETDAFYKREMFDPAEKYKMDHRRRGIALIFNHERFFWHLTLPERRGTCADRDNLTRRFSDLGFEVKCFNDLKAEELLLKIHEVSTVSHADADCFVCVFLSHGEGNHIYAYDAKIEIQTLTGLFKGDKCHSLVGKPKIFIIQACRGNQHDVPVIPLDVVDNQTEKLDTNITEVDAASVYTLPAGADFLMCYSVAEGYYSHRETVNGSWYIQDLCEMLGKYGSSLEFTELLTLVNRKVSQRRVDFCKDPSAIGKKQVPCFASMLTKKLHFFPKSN

Caspase-3 [2] = biological target: T2, Caspase-3 (Homo sapiens, UniProt P42574); test: Inhibition of Caspase-3
T2 sequence (P42574 whole entry): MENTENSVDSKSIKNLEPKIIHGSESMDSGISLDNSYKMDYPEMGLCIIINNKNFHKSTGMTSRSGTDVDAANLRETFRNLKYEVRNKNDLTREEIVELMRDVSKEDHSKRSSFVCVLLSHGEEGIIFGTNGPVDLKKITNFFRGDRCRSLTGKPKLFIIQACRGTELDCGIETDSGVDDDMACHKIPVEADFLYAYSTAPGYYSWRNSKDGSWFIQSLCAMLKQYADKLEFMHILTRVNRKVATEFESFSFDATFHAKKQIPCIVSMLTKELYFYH

Caspase-7 [3] = biological target: T3, Caspase-7 (Homo sapiens, UniProt P55210); test: Inhibition of Caspase-7 enzyme
T3 sequence (P55210 whole entry): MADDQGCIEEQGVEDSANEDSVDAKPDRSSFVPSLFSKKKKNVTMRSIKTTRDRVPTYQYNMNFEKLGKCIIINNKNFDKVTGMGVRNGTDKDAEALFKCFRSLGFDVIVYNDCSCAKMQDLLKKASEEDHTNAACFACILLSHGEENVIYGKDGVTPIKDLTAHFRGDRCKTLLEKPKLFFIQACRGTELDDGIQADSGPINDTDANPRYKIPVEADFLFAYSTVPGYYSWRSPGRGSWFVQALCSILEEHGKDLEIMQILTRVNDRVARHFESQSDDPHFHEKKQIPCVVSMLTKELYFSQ

Caspase-1 [4] = biological target: T4, Caspase-1 (Homo sapiens, UniProt P29466); test: Inhibition of Caspase-1 enzyme
T4 sequence (P29466 whole entry): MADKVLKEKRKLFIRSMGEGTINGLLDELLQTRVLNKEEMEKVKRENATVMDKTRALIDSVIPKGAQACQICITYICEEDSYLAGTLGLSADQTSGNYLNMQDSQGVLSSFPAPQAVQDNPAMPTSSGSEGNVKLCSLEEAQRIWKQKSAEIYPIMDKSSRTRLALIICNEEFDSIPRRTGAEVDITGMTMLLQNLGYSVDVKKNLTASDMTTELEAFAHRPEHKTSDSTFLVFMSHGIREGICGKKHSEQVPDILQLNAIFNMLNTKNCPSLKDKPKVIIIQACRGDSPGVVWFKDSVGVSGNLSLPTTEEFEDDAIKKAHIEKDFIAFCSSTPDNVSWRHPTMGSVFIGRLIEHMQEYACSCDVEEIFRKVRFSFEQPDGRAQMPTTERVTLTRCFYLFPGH

Caspase-8 [5] = biological target: T5, Caspase-8 (Homo sapiens, UniProt Q14790); test: Inhibition of Caspase-8 enzyme
Caspase-7 [6] = biological target: T3, Caspase-7; test: Inhibitory concentration of compound required against Caspase-7 enzyme compared to acylated dipeptides
Caspase-6 [7] = biological target: T1, Caspase-6; test: Inhibitory concentration of compound required against Caspase-6 enzyme compared to acylated dipeptides
Caspase-8 [8] = biological target: T5, Caspase-8; test: Inhibitory concentration of compound required against Caspase-8 enzyme compared to acylated dipeptides
Caspase-1 [9] = biological target: T4, Caspase-1; test: Inhibitory concentration of compound required against Caspase-1 enzyme compared to acylated dipeptides
Caspase-3 [10] = biological target: T2, Caspase-3; test: Inhibitory concentration of compound required against Caspase-3 enzyme compared to acylated dipeptides

T5 sequence (Q14790 217-374 limits assumed): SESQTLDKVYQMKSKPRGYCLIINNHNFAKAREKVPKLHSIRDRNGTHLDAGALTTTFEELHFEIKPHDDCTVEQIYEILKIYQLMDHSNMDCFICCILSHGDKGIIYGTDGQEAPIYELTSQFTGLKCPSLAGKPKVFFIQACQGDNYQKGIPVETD
T5 sequence (Q14790 385-479 limits assumed): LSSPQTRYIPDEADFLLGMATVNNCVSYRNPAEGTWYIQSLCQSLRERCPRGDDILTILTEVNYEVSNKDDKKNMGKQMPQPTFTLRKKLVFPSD

Row | IC50 (Caspase-6 [1]) [nM] | IC50 (Caspase-3 [2]) [nM] | IC50 (Caspase-7 [3]) [nM] | IC50 (Caspase-1 [4]) [nM] | IC50 (Caspase-8 [5]) [nM] | IC50 (Caspase-7 [6]) [nM] | IC50 (Caspase-6 [7]) [nM] | IC50 (Caspase-8 [8]) [nM] | IC50 (Caspase-1 [9]) [nM] | IC50 (Caspase-3 [10]) [nM] | SMILES
1 | 1010 | 207 | 11000 | 127 | 615 | – | – | – | – | – | CC(C)C(NC(=O)COc1cccc2c(NS(=O)(=O)C(F)(F)F)cccc12)C(=O)N[C@H]1CC(=O)OC1O (some centres not stated)
2 | 3030 | 1920 | 43700 | 2180 | 1420 | – | – | – | – | – | CC(C)C(NC(=O)COc1cc2ccccc2cc1NS(=O)(=O)C(F)(F)F)C(=O)N[C@H]1CC(=O)OC1O (some centres not stated)
3 | 15 | 21 | 587 | – | 12 | – | – | – | – | – | CC(C)CC(NC(=O)[C@@H](CCC(=O)O)Oc1cccc2ccccc12)C(=O)N[C@H]1CC(=O)OC1O (some centres not stated)
4 | 1430 | 54 | 1650 | 385 | 48 | – | – | – | – | – | CC(C)C(NC(=O)COc1c(C(=O)O)ccc2ccccc12)C(=O)N[C@H]1CC(=O)OC1O (some centres not stated)
5 | 308 | 230 | 2670 | 330 | 670 | – | – | – | – | – | CC(C)CC(NC(=O)CNc1cccc(Oc2ccccc2)c1)C(=O)N[C@H]1CC(=O)OC1O (some centres not stated)
6 | 3.5 | 3.8 | 130 | – | 31 | – | – | – | – | – | CC(C)CC(NC(=O)[C@H](CCC(=O)O)Oc1cccc2ccccc12)C(=O)N[C@H]1CC(=O)OC1O (some centres not stated)
7 | 589 | 320 | 2920 | 790 | 990 | – | – | – | – | – | CC(C)CC(NC(=O)CNCC(Cc1ccccc1)c1ccccc1)C(=O)N[C@H]1CC(=O)OC1O (some centres not stated)
8 | 310 | 512 | 7240 | – | 17 | – | – | – | – | – | CC(C)C[C@H](NC(=O)C(C)Nc1cccc2ccccc12)C(=O)N[C@H]1CC(=O)OC1O (some centres not stated)
9 | 4600 | 4400 | 37000 | 250 | 19600 | – | – | – | – | – | CC(C)C(NC(=O)CCOc1cccc2ccccc12)C(=O)N[C@H]1CC(=O)OC1O (some centres not stated)
10 | 37 | 13 | 1320 | 33 | 7.6 | – | – | – | – | – | CC(C)CC(NC(=O)CNc1cccc2ccccc12)C(=O)N[C@H]1CC(=O)OC1O (some centres not stated)
11 | 7000 | 1550 | 6140 | 15 | 450 | – | – | – | – | – | CC(C)C(NC(=O)CNc1cccc2ccccc12)C(=O)N[C@H]1CC(=O)OC1O (some centres not stated)
12 | > 10000 | 355 | 2100 | 336 | 1200 | – | – | – | – | – | CC(C)C(NC(=O)COc1cccc2ccccc12)C(=O)N[C@H]1CC(=O)OC1O (some centres not stated)
13 | 3610 | 401 | 10900 | 2960 | 733 | – | – | – | – | – | CC(C)C(NC(=O)COc1ccc2ccccc2c1C(=O)O)C(=O)N[C@H]1CC(=O)OC1O (some centres not stated)
14 | 1900 | 731 | 17000 | 1890 | 200 | – | – | – | – | – | CC(C)C(NC(=O)COc1cc2ccccc2cc1C(=O)O)C(=O)N[C@H]1CC(=O)OC1O (some centres not stated)
15 | – | – | – | – | – | 10 | 10 | 80 | 50 | 3.5 | CC(=O)N[C@@H](CC(=O)O)C(=O)N[C@@H](CCC(=O)O)C(=O)N[C@H](C(=O)N[C@H]1CC(=O)OC1O)C(C)C (some centres not stated)
